Measurements reported in ChEMBL document CHEMBL1144724, “Secondary metabolites of Cinnamosma madagascariensis and their alpha-glucosidase inhibitory properties” (J Nat Prod, 2008).
Calls of active or inactive are those of the source. The calls are words filed in the database; no cut-off is given here.

Assay: Inhibition of alpha-glucosidase at 0.1 mg/mL relative to 1-deoxynojirimycin

SMILES | Activity | inhibition
CC(=O)O[C@@H]1[C@@H](Cl)C2=C(COC2=O)[C@@]2(C)CCCC(C)(C)[C@H]12 | – | 28.1%
CC1(C)CCC[C@]2(C)[C@@H](C=O)C(C=O)=CC[C@@H]12 | – | 2.1%
CC(=O)O[C@@H]1C=C(C2O[C@@H]3OC(O)C4=C[C@@H](OC(C)=O)[C@H]5C(C)(C)CCC[C@]5(C)[C@]43O2)[C@](O)(C=O)[C@@]2(C)CCCC(C)(C)[C@H]12 (stereo partly drawn) | – | 83.7%
CC(=O)O[C@@H]1[C@@H](O)C2=C(COC2=O)[C@@]2(C)CCCC(C)(C)[C@H]12 | – | 14.9%
CC(=O)O[C@@H]1[C@@H](O)C2=C(C(=O)OC2)[C@@]2(C)CCCC(C)(C)[C@H]12 | – | 46.2%

Now from value to compound:

Activity | inhibition | SMILES
inactive | – | CO[C@@H]1O[C@@H](OC)[C@@]2(O)C1=C[C@@H](OC(C)=O)[C@H]1C(C)(C)CCC[C@@]12C
– | 20% | CC(=O)O[C@@H]1C=C2C(=O)OC[C@]2(O)[C@@]2(C)CCCC(C)(C)[C@H]12
– | 7.2% | CC1(C)CCC[C@@]2(C)[C@H]1[C@H](O)C=C1C(=O)OC[C@@]12O
